{
  "source": "ChEMBL document CHEMBL1201862",
  "about": "“PubChem BioAssay data set” (2004)",
  "key": {"[1]": {"target": "T1, Mannose-6-phosphate isomerase (Homo sapiens, UniProt P34949)", "T1 sequence (P34949 whole entry)": "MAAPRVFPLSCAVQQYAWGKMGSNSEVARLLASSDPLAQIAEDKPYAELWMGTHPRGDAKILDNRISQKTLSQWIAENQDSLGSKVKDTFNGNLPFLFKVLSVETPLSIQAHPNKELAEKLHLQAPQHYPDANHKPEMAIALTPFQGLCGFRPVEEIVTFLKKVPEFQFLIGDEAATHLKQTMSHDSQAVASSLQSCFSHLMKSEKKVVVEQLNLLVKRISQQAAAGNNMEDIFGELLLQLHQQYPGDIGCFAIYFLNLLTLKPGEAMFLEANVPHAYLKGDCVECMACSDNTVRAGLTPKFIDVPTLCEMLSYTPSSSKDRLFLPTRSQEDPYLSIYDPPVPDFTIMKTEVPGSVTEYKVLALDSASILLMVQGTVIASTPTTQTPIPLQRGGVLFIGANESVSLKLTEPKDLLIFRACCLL", "experiment": "human PMI inhibitors, high substrate, primary screen, biochemical, fluorescence intensity, high mannose 6-phosphate (AID 1220)"}, "[2]": {"target": "T2, Sentrin-specific protease 6 (Homo sapiens, UniProt Q9GZR1)", "T2 sequence (Q9GZR1 whole entry)": "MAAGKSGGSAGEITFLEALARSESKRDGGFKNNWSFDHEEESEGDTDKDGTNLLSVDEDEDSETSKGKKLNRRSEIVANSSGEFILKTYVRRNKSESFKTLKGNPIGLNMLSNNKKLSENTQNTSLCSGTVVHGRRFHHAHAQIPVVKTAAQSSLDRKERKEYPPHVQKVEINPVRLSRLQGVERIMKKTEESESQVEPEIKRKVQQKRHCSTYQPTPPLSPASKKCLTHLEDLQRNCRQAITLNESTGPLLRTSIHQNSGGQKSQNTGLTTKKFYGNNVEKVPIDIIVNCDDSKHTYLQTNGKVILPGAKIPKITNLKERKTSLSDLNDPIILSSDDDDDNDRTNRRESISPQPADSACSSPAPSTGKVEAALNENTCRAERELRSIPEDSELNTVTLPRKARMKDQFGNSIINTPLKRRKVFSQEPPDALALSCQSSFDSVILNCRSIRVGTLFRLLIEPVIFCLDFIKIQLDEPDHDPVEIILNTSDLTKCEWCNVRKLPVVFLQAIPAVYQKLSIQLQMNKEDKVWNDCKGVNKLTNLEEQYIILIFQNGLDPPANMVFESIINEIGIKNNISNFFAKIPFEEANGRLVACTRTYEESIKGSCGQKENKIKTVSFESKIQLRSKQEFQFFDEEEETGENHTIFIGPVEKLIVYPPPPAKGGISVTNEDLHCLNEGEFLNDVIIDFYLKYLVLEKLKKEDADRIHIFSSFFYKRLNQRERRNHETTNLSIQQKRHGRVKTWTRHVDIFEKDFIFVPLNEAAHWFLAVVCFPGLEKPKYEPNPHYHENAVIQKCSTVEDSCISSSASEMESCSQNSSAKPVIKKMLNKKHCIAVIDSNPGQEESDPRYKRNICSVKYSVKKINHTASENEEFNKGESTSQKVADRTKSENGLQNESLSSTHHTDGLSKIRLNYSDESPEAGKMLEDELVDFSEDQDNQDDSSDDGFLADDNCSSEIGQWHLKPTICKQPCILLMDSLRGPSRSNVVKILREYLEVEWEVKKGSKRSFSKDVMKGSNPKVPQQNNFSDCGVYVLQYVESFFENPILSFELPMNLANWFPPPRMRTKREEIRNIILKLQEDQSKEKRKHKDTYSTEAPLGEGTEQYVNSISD", "experiment": "SAR Analysis of small molecule inhibitors of Sentrin-specific protease 6 (SENP6) using a Luminescent assay. [Related pubchem assays (depositor defined):AID2582, AID2599]", "type": "functional"}, "[3]": {"target": "T3, Caspase-3 (Homo sapiens, UniProt P42574)", "T3 sequence (P42574 whole entry)": "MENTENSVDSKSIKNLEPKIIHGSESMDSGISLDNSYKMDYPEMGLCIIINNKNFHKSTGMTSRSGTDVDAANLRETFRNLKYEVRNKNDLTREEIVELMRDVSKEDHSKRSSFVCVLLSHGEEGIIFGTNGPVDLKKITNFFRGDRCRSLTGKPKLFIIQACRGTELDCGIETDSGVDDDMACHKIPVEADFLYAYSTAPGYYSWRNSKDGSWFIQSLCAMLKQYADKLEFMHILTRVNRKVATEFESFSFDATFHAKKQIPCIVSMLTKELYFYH", "experiment": "SAR Analysis of small molecule inhibitors of Sentrin-specific proteases (SENPs) using a Caspase-3 Selectivity assay. [Related pubchem assays (depositor defined):AID2540, AID2599, AID434973, AID489001]", "type": "functional"}, "[4]": {"experiment": "inhibitors of firefly luciferase expression or activity, dose response, H4 neuroglioma cells, luminescence (AID 1990)", "type": "functional, cell-based"}, "[5]": {"experiment": "CellTiter-Glo luminescent dose response of DLD-1 viability loss (AID 1117352)", "type": "functional"}, "[6]": {"target": "T4, RNA-binding protein pos-1 (Caenorhabditis elegans, UniProt G5EF15)", "T4 sequence (G5EF15 whole entry)": "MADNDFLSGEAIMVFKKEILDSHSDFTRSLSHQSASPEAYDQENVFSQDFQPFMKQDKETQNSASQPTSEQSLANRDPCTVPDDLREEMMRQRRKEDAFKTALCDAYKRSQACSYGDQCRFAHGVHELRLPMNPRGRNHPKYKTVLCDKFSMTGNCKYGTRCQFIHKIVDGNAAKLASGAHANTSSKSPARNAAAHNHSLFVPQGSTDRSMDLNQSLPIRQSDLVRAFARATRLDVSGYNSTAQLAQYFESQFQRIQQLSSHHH", "experiment": "inhibitors of POS-1/mex-3 RNA binding, dose response, biochemical, fluorescence polarization (AID 1964);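 further: purified POS-1 fused to maltose binding protein made in E. coli; potency of compounds blocking POS-1 binding to fluorescent RNA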"}, "[7]": {"tested_on": "BJ", "experiment": "cytotoxicity toward BJ-TERT-LT-ST fibroblasts, dose response, cell-based, RAS-independent, luminescence (AID 1935);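 further: BJ fibroblasts immortalized with TERT plus LT and ST oncogenes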", "type": "functional", "details": "Homo sapiens"}, "[8]": {"experiment": "cytotoxicity toward Colo320 cells – cell-based, CellTiter-Glo luminescence, IC50, dose response (AID 1117334)", "type": "functional", "details": "COLO 320"}, "[9]": {"tested_on": "BJ", "experiment": "cytotoxicity toward Ras-transformed BJeLR fibroblasts, dose response, cell-based, alamar blue fluorescence, cherrypicked samples (AID 2631);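 further: confirmatory dose-response assay in RAS-dependent BJ fibroblasts engineered with TERT, LT and ST, with cytotoxicity read by fluorescence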", "type": "functional", "details": "Homo sapiens"}, "[10]": {"target": "T2, Sentrin-specific protease 6", "type": "functional"}},
  "note": "Active and inactive are the calls of the source.",
  "data": [
    {"compound": "Oc1ccc(/C=N/Nc2cc(N3CCCC3)nc(N3CCCC3)n2)cc1O", "values": [
      {"measurement": "IC50", "setting": "[1]", "value": "> 50 µM (not active)"},
      {"measurement": "IC50", "setting": "[2]", "value": "10.5 µM (active)"},
      {"measurement": "IC50", "setting": "[3]", "value": "> 99 µM (inactive)"}
    ]},
    {"compound": "Cc1cc2nc3ccc(N(C)C)cc3[s+]c2cc1N", "note": "[TOLONIUM CHLORIDE]", "values": [
      {"measurement": "EC50", "setting": "[4]", "value": "8.36 µM (active)"},
      {"measurement": "IC50", "setting": "[5]", "value": "9.38 µM (inactive)"},
      {"measurement": "EC50", "setting": "[6]", "value": "> 300 µM (not active)"},
      {"measurement": "EC50", "setting": "[7]", "value": "9.19 µM (inconclusive)"},
      {"measurement": "IC50", "setting": "[8]", "value": "0.987 µM (active)"},
      {"measurement": "EC50", "setting": "[9]", "value": "0.491 µM (inconclusive)"}
    ]},
    {"compound": "CCCOc1cc2c(C#N)c(N3CCCC3)nc(N)c2c(N)n1", "values": [
      {"measurement": "IC50", "setting": "[10]", "value": "3.96 µM (active)"}
    ]}
  ]
}
